This data set can be described thus: mn = molality of the nth substance listed, in mol/kg. As to conditions: 298.15 K, 100 kPa, Liquid, Vibrating tube method.

One may read the mass density as the mass of a sample divided by its volume.

± gives the expanded uncertainty stated by the source.

`C[N+](C)(C)C[C@H](O)CC(=O)[O-]` [(R)-3-hydroxy-4-(trimethylammonio)butanoate] + O: the mass density (m1 = 0.8817) amounted to 1023.6 ± 0.21 kg/m3.
Turning to `[Cl-].[K+]` [potassium chloride] + O, the mass density came out at 1019.83 ± 0.11 kg/m3 (m1 = 0.5); 1041.41 ± 0.11 kg/m3 (m1 = 0.9998); 1062.03 ± 0.12 kg/m3 (m1 = 1.499); 1081.48 ± 0.12 kg/m3 (m1 = 2); 1100.25 ± 0.12 kg/m3 (m1 = 2.499); 1117.69 ± 0.13 kg/m3 (m1 = 2.98).
For `[Br-].[Na+]` [sodium bromide] + O, the mass density was determined as 1035.42 ± 0.11 kg/m3 (m1 = 0.5); 1072.67 ± 0.12 kg/m3 (m1 = 0.9999); 1107.94 ± 0.13 kg/m3 (m1 = 1.5); 1142.48 ± 0.14 kg/m3 (m1 = 2); 1175.65 ± 0.14 kg/m3 (m1 = 2.5); 1207.24 ± 0.15 kg/m3 (m1 = 2.999).
As for `[Cl-].[Na+]` [sodium chloride] + O, the mass density came out at 1036.18 ± 0.11 kg/m3 (m1 = 1); 1054.74 ± 0.12 kg/m3 (m1 = 1.5); 1072.27 ± 0.12 kg/m3 (m1 = 2); 1089.16 ± 0.12 kg/m3 (m1 = 2.499); 1105.67 ± 0.13 kg/m3 (m1 = 3).

The record behind these values is the NIST ThermoML archive (doi:10.1016/j.jct.2015.11.028).
